{"source": "paper PMC5847048", "about": "(Psychopharmacology, 2017)", "key": {"[1]": {"system": "aged mice (18–19 months old)", "assay": "Sequential/spontaneous alternation (SA) working memory task in T-maze", "format": "in vivo, mouse", "conditions": "ITI 90 s", "method": "Treatments were administered per os daily for nine consecutive days for studies involving the CSD and SA tasks. The 8th and the 9th oral administrations were given 60 min before acquisition and test phases in the CSD task, or before the training and the test sessions in the SA task.\nThe spontaneous alternation (SA) task was performed in independent groups of mice as regards to the CSD and radial maze tasks. The SA task allows investigation of aged-induced working memory impairments (Vandesquille et al. [2011]). In this task, mice are submitted to a series of successive choices in a T-maze. To alternate from trial to trial, animals have to remember at each choice (except the first one) only the previous trial and to reset the interfering information from trial to trial over a series. This resetting mechanism is a main aspect of working memory (Aggleton et al. [1986]; Béracochéa and Jaffard, [1987]; Kesner [2005]).\nBehavioral tests were conducted in a gray Plexiglas T-maze. Stem and arms are 35 cm long, 15 cm wide, and 10 cm high. The starting box (10 cm × 12 cm) and each goal arm are separated from the central alley by a vertical sliding door, with opening and closing monitored by a computer. Photoelectric cells allow recording of both the choice of the goal arm (left or right) and the latency (in seconds) that elapsed between the opening of the starting box and the closing of the goal box. The T-maze is located at the center of a room with various allocentric cues (white or black or striped card boards) located on the wall 1 m above the apparatus.\nAnimals were not food deprived, and no food reinforcement was used. Animals were first submitted to a habituation phase consisting of two free exploration sessions of 10 min each, over two consecutive days (one session per day) in the apparatus with all doors opened. At the end of the habituation phase, all animals were submitted to a training phase, involving a series of seven successive trials separated by a 30-s intertrial interval (ITI). The training phase was aimed at familiarizing the animals with the opening and closing of the doors.\nFor the training session, animals were submitted to a sequence of seven successive identical trials. At the beginning of a trial, mice were placed in the starting box and after a confinement period (30 s, predefined ITI), the door to the stem was opened. When the mouse entered one of the goal arms, the door was closed and the chosen arm was recorded. After a 30-s confinement period in the chosen arm, the mouse was gently returned to the starting box for a second trial, identical to the first one. To avoid olfactory cues in the apparatus, visible traces of urine were removed and the general procedure was implemented as in the training phase, except that the ITI was extended to 90 s and animals were submitted to a series of […] successive trials. […] Moreover, an 8th trial was added to the series which was separated from the 7th one by a 5-s ITI. […] The alternation score (in percentage) was used as an index of memory performance. An alternation is defined as a visit in a given arm followed by a visit into the other arm. The successive sequence of visits for the seven first trials determines the level of alternation. A percentage of alternation was calculated: number of alternations performed/number maximal of alternation. This percentage is calculated for each mouse.\nFor the sequential alternation task, mean and standard errors of the mean (SEM) were calculated for each group of treatment. In addition to % alternation drawn over the seven trials of the series, behavioral performances were also expressed in percentage of alternation drawn from blocks of two consecutive trials (block 1: trials 2 + 3; block 2: trials 4 + 5; block 3: trials 6 + 7). The analyses per trial blocks allowed evaluation of proactive interference over the series (Vandesquille et al. [2011], [2013]). Statistical analyses were performed using the Statview 5.0 software. […]"}, "[2]": {"method": "The sampling times were 30 min, 1, 2, 4, and 6 h.\nPlasma was extracted from the blood sample by centrifugation (+ 4 °C, 1500g, 10 min) and stored at − 80 °C. Then, plasma samples were sent in dry ice to Celerion (Switzerland) for the pharmacokinetic analysis."}, "middle-aged mice": {"system": "middle-aged mice", "set-up": "method as in Giralt et al. [2017]", "conditions": "ref Giralt et al. [2017]; cited from earlier work"}, "aged rats": {"system": "aged rats", "set-up": "method as in Calabrese et al. [2017]", "conditions": "dorsal hippocampus and prefrontal cortex of aged rats; ref Calabrese et al. [2017]; cited from earlier work"}, "rats": {"system": "rats", "set-up": "method as in Bretin et al. [2017]", "conditions": "acute administration, ref Bretin et al. [2017]; cited from earlier work"}, "normal adult mice": {"system": "normal adult mice", "set-up": "method as in Bretin et al. [2017]", "conditions": "acute administration, ref Bretin et al. [2017]; cited from earlier work"}, "mice": {"system": "mice", "assay": "Primary observation (Irwin) test", "conditions": "S 47445 alone, 3 to 100 mg/kg p.o.; mice", "excerpt": "Male Rj: C57BL/6J mice (Elevage Janvier, 53940 Le Genest-Saint-Isle, France), 23–27 g body weight range, were stabilized for at least 5 days after delivery in macrolon cages in groups of 10 (housing period) (25 × 19 × 13 cm) and then of 4 (starting the day before the test and during the test) in macrolon cages (25 × 19 × 13 or 32 × 13 × 14 cm) on wood litter with free access to food and water.\nBetween one and three treated groups were compared with the same control at any one time. […] In order to keep the same conditions, all the mice receiving a single treatment also received another administration with vehicle.\nBehavioral modifications, physiological and neurotoxicity symptoms, and rectal temperature were recorded according to a standardized observation grid derived from that of Irwin. The grid contains the following items: death*, convulsions*, tremor*, Straub tail*, altered activity, excitation, jumping*, abnormal gait* (rolling, tip-toe), motor incoordination*, altered muscle tone, loss of grasping, akinesia, catalepsy, loss of traction, writhing*, piloerection*, stereotypies* (sniffing, chewing, head movements), head-twitches*, scratching*, altered respiration*, aggression*, altered fear, altered reactivity to touch, ptosis, exophthalmia, loss of righting reflex, loss of corneal reflex, analgesia, defecation/diarrhea, salivation, lacrimation, and rectal temperature (hypothermia/hyperthermia)."}, "[3]": {"conditions": "S 47445 0.01 mg/kg p.o. alone, n = 12"}, "[4]": {"conditions": "S 47445 0.03 mg/kg p.o. alone, n = 12"}, "[5]": {"conditions": "S 47445 0.3 mg/kg p.o. alone, n = 12"}, "[6]": {"conditions": "S 47445 1.0 mg/kg p.o. alone, n = 12"}, "[7]": {"conditions": "S 47445 0.3 mg/kg p.o. alone, repeated (day 10), blood, middle-aged mice"}}, "note": "Where two headings read alike, the source gives them in different places."}
{"smiles": "O=C1c2cc3nnn(CCc4cccc(F)c4)c(=O)c3cc2OCN1C1CC1", "note": "[S 47445]", "values": [{"measurement": "Alternation score, 3rd block of trials (trials 6 + 7)", "setting": "[1]; [3]", "result": "45.833 ± 9.650", "unit": "n = 12%"}, {"measurement": "Alternation score, seven first trials of the series", "setting": "[1]; [3]", "result": "59.722 ± 2.477", "unit": "n = 12%"}, {"measurement": "Alternation score, 3rd block of trials (trials 6 + 7)", "setting": "[1]; [4]", "result": "50.000 ± 8.704", "unit": "n = 12%"}, {"measurement": "Alternation score, seven first trials of the series", "setting": "[1]; [4]", "result": "61.11 ± 4.738", "unit": "n = 12%"}, {"measurement": "Alternation score, 3rd block of trials (trials 6 + 7)", "setting": "[1]; S 47445 0.1 mg/kg p.o. alone, n = 12", "result": "70.833 ± 7.432", "unit": "n = 12%"}, {"measurement": "Alternation score, seven first trials of the series", "setting": "[1]; S 47445 0.1 mg/kg p.o. alone, n = 12, 0.1 mg/kg", "result": "alternated significantly above vehicles"}, {"measurement": "Alternation score, seven first trials of the series", "setting": "[1]; S 47445 0.1 mg/kg p.o. alone, n = 12, listed as S47445, 0.1 mg/kg", "result": "65.278 ± 3.815", "unit": "n = 12 %"}, {"measurement": "Alternation score, 3rd block of trials (trials 6 + 7)", "setting": "[1]; [5]", "result": "50.000 ± 8.704", "unit": "n = 12%"}, {"measurement": "Alternation score, seven first trials of the series", "setting": "[1]; [5]", "result": "61.111 ± 2.369", "unit": "n = 12%"}, {"measurement": "Alternation score, 3rd block of trials (trials 6 + 7)", "setting": "[1]; [6]", "result": "58.333 ± 8.333", "unit": "n = 12%"}, {"measurement": "Alternation score, seven first trials of the series", "setting": "[1]; [6]", "result": "59.722 ± 3.217", "unit": "n = 12%"}, {"measurement": "Mean AUClast [% CV]", "setting": "[2]; [7]", "result": "32.1 [7.83] ng h/mL"}, {"measurement": "Mean Cmax [% CV]", "setting": "[2]; [7]", "result": "10.2 [13.7] ng/mL"}, {"measurement": "Median Tmax [range]", "setting": "[2]; [7]", "result": "1.5 [1–4] h"}, {"measurement": "T1/2z [% CV]", "setting": "[2]; [7]", "result": "2.09 [32.0] h"}, {"measurement": "Blood concentration at the active doses used in the pharmacological experiments", "setting": "[2]; S 47445, limit of quantification 1 ng/ml", "result": "below the limit of quantification"}, {"measurement": "tmax", "setting": "[2]; S 47445, not changed following combination", "result": 1.5, "unit": "h"}, {"measurement": "Apparent elimination half-life", "setting": "[2]; mouse, in vivo", "result": "2.1 to 3.6", "unit": "h"}, {"measurement": "Mean AUClast [% CV]", "setting": "[2]; mouse, in vivo", "result": "32.6 [23.0] ng h/mL"}, {"measurement": "Mean Cmax [% CV]", "setting": "[2]; mouse, in vivo", "result": "8.46 [20.8] ng/mL"}, {"measurement": "Median Tmax [range]", "setting": "[2]; mouse, in vivo", "result": "1.5 [1–2] h"}, {"measurement": "T1/2z [% CV]", "setting": "[2]; mouse, in vivo", "result": "3.58 [66.9] h"}, {"measurement": "Time after dosing at which Cmax was reached", "setting": "[2]; mouse, in vivo", "result": "1 to 4", "unit": "h"}, {"measurement": "In vivo CA3-CA1 long-term potentiation and structural synaptic changes", "setting": "middle-aged mice", "result": "rescues in vivo CA3-CA1 long-term potentiation and structural synaptic changes"}, {"measurement": "Neurotrophic effects", "setting": "aged rats", "result": "displayed neurotrophic effects"}, {"measurement": "Episodic-like memory in object recognition", "setting": "rats", "result": "dose-related improvement"}, {"measurement": "Working-like memory in spontaneous alternation task", "setting": "normal adult mice", "result": "dose-related improvement"}, {"measurement": "Observable effects in the Irwin test", "setting": "mice", "result": "devoid of any observable effect"}]}
